From US20250195530A1, “POLQ INHIBITORS” (ASTRAZENECA AB, priority 2022, published 2025) come the findings set out here.

The subject of the test is DLD-1 BRCA2−/− cells. In words: Homologous recombination synthetic lethal inhibition of proliferation, DLD-1 BRCA2-/- (Cell Titre Glo 3D). It counts as cell-based. Particulars: for IC50: Homo sapiens. The gist of the method: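 Cells are seeded in RPMI 1640 (phenol red free, 10% FBS, GlutaMAX) onto pre-dosed compound (10 μM to 0.51 nM, three-fold). Plates are incubated at 37 °C, and medium plus compound are refreshed on day 6. Viability is read by CellTiter-Glo 3D at day 7 (DLD-1) or day 12 (DLD-1 BRCA2−/−), and the IC50 is fitted.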

[1] abbreviates: DLD-1, proliferation, luminescence, taken as DLD-1 BRCA2-/-, read-out: POLQ PD Prolif Lumin (converted).
Where [2] appears, read: DLD-1, DLD-1 BRCA2-/- proliferation, column head only partly shown, read-out: POLQ PD Prolif Lumin (converted).
Setting [3] is: DLD-1, first proliferation column (c5), DLD-1 BRCA2-/-, read-out: POLQ PD Prolif Lumin (converted).
Where [4] appears, read: DLD-1, DLD-1 BRCA2 −/−, mean, read-out: POLQ PD Prolif Lumin BRCA2 −/− mean pIC50 (converted).
Setting [5] is: DLD-1, 288 h, DLD-1 BRCA2−/− cells, 12 days, read-out: POLQ PD Prolif Lumin BRCA2 −/− mean pIC50 (converted).
The mark [6] stands for this setting: DLD-1, DLD-1 BRCA2 −/− cells, mean, read-out: POLQ PD Prolif Lumin BRCA2 −/− mean pIC50 (converted).

Read-outs that look alike come from different tables or passages of the source.

On to `Cc1ccnc(Cn2c(-c3ccc(C(=O)N4CCC[C@H](O)C4)cc3Cl)nc3c(OC4(C)CC4)ncnc32)c1` [Example T461, (S)-(3-chloro-4-(6-(1-methylcyclopropoxy)-9-((4-methylpyridin-2-yl)methyl)-9H-purin-8-yl)phenyl)(3-hydroxypiperidin-1-yl)methanone], for which, under setting [1], the IC50 was 1260 nM.

Turning to `CC(CCOc1ccc(-c2nc3c(OC4(C)CC4)ncnc3n2Cc2cccc(Cl)c2)c(Cl)c1)C(=O)O` (racemic) [Example T291, 4-(3-chloro-4-(9-(3-chlorobenzyl)-6-(1-methylcyclopropoxy)-9H-purin-8-yl)phenoxy)-2-methylbutanoic acid], the IC50 under setting [2] was 158 nM. For `Cc1c(Cn2c(-c3ccc(OCCC(C)C(=O)O)cc3Cl)nc3c(OC4(C)CC4)ncnc32)cccc1C(F)(F)F` (single isomer, unassigned) [Example T534, 4-(3-chloro-4-(9-(2-methyl-3-(trifluoromethyl)benzyl)-6-(1-methylcyclopropoxy)-9H-purin-8-yl)phenoxy)-2-methylbutanoic acid], the IC50 under setting [3] is 3160 nM. As for `CC(COc1cccc(-c2nc3c(OC4(C)CC4)ncnc3n2Cc2cc(Cl)ccc2F)c1Cl)CC(=O)O` (single isomer, unassigned) [Example U33, 4-(2-chloro-3-(9-(5-chloro-2-fluorobenzyl)-6-(1-methylcyclopropoxy)-9H-purin-8-yl)phenoxy)-3-methylbutanoic acid], under setting [4], the IC50 is 15.8 nM. On to `Cc1ccnc(Cn2c(-c3ccc(C(=O)NC(C)C)cc3Cl)nc3c(OC4(C)CC4)ncnc32)c1` [Example T211, 3-chloro-N-isopropyl-4-(6-(1-methylcyclopropoxy)-9-((4-methylpyridin-2-yl)methyl)-9H-purin-8-yl)benzamide], for which the IC50 under setting [2] was 501 nM. On to `CC1(Oc2ncnc3c2nc(-c2ccc(OCCNC(=O)CO)cc2Cl)n3Cc2ccccc2)CC1` [Example D26, N-(2-(4-(9-benzyl-6-(1-methylcyclopropoxy)-9H-purin-8-yl)-3-chlorophenoxy)ethyl)-2-hydroxyacetamide], for which the IC50 under setting [5] was 100 nM. Regarding `CCC(=O)N1CC(Oc2ccc(-c3nc4c(OC5(C)CC5)ncnc4n3Cc3cc(C)ccn3)c(Cl)c2)C1` [Example T471, 1-(3-(3-chloro-4-(6-(1-methylcyclopropoxy)-9-((4-methylpyridin-2-yl)methyl)-9H-purin-8-yl)phenoxy)azetidin-1-yl)propan-1-one], under setting [1], the IC50 was 158 nM. As to `Cc1ccnc(Cn2c(-c3ccc(OCC(=O)N[C@H](C)CCO)cc3Cl)nc3c(OC4(C)CC4)ncnc32)c1` [Example T516, (R)-2-(3-chloro-4-(6-(1-methylcyclopropoxy)-9-((4-methylpyridin-2-yl)methyl)-9H-purin-8-yl)phenoxy)-N-(4-hydroxybutan-2-yl)acetamide], the IC50 under setting [3] was 200 nM. Consider `Cc1ccnc(Cn2c(-c3ccc(C(=O)N4CC[C@@H](CO)C4)cc3Cl)nc3c(OC4(C)CC4)ncnc32)c1` [Example T464, (R)-(3-chloro-4-(6-(1-methylcyclopropoxy)-9-((4-methylpyridin-2-yl)methyl)-9H-purin-8-yl)phenyl)(3-(hydroxymethyl)pyrrolidin-1-yl)methanone], for which the IC50 under setting [1] was 1580 nM. For the compound `CC1(Oc2ncnc3c2nc(-c2ccc(OCC[C@@](C)(O)C(=O)O)cc2Cl)n3Cc2cccc(Cl)c2)CC1` [Example T301, (R)-4-(3-chloro-4-(9-(3-chlorobenzyl)-6-(1-methylcyclopropoxy)-9H-purin-8-yl)phenoxy)-2-hydroxy-2-methylbutanoic acid], the IC50 (DLD-1, first proliferation column (c5), taken as DLD-1 BRCA2-/-, read-out: POLQ PD Prolif Lumin (converted)) is 2510 nM. For the compound `Cc1ccnc(Cn2c(-c3ccc(N4C[C@H]5CCN[C@H]5C4)cc3Cl)nc3c(OC4(C)CC4)ncnc32)c1` [Example T494, 8-(2-chloro-4-((3aR,6aR)-hexahydropyrrolo[3,4-b]pyrrol-5(1H)-yl)phenyl)-6-(1-methylcyclopropoxy)-9-((4-methylpyridin-2-yl)methyl)-9H-purine], the IC50 under setting [3] was 316 nM. As for `CC(C)(COc1ccc(-c2nc3c(OC4(C)CC4)ncnc3n2Cc2cccc(Cl)c2)c(Cl)c1)CC(=O)O` [Example T436, 4-(3-chloro-4-(9-(3-chlorobenzyl)-6-(1-methylcyclopropoxy)-9H-purin-8-yl)phenoxy)-3,3-dimethylbutanoic acid], the IC50 under setting [1] is 200 nM. Take `Cc1ccnc(Cn2c(-c3ccc(N4CCN5CCC4C5)cc3Cl)nc3c(OC4(C)CC4)ncnc32)c1` (racemic) [Example T493, 8-(4-(1,4-diazabicyclo[3.2.1]octan-4-yl)-2-chlorophenyl)-6-(1-methylcyclopropoxy)-9-((4-methylpyridin-2-yl)methyl)-9H-purine]: the IC50 under setting [3] is 251 nM. For the compound `Cc1ccnc(Cn2c(-c3ccc(OCC(F)F)cc3Cl)nc3c(OC4(C)CC4)ncnc32)c1` [Example T47, 8-(2-chloro-4-(2,2-difluoroethoxy)phenyl)-6-(1-methylcyclopropoxy)-9-((4-methylpyridin-2-yl)methyl)-9H-purine], under setting [6], the IC50 is 200 nM. Turning to `CC[C@H](CO)NC(=O)COc1ccc(-c2nc3c(OC4(C)CC4)ncnc3n2Cc2cc(C)ccn2)c(Cl)c1` [Example T518, (R)-2-(3-chloro-4-(6-(1-methylcyclopropoxy)-9-((4-methylpyridin-2-yl)methyl)-9H-purin-8-yl)phenoxy)-N-(1-hydroxybutan-2-yl)acetamide], the IC50 under setting [3] was 398 nM.

As to `Cc1ccnc(Cn2c(-c3ccc(OC4CCc5nccn5C4)cc3Cl)nc3c(OC4(C)CC4)ncnc32)c1` (single isomer, unassigned) [Example T536, 8-(2-chloro-4-((5,6,7,8-tetrahydroimidazo[1,2-a]pyridin-6-yl)oxy)phenyl)-6-(1-methylcyclopropoxy)-9-((4-methylpyridin-2-yl)methyl)-9H-purine], under setting [3], the IC50 is 501 nM.

For the compound `CC1NCCN(CCOc2ccc(-c3nc4c(OC5(C)CC5)ncnc4n3Cc3ccccc3)c(Cl)c2)C1=O` (single isomer, unassigned; isomer 1) [Example R13, 1-(2-(4-(9-benzyl-6-(1-methylcyclopropoxy)-9H-purin-8-yl)-3-chlorophenoxy)ethyl)-3-methylpiperazin-2-one (Isomer 1)], under setting [5], the IC50 was 200 nM. With `CC1(Oc2ncnc3c2nc(-c2ccc(OC[C@H]4C[C@H](C(=O)O)C4)cc2Cl)n3Cc2ccccc2C#N)CC1` [Example U27, (1r,3r)-3-((3-chloro-4-(9-(2-cyanobenzyl)-6-(1-methylcyclopropoxy)-9H-purin-8-yl)phenoxy)methyl)cyclobutane-1-carboxylic acid], the “POLQ PD Prolif Lumin BRCA2 −/− mean pIC50” value (DLD-1 BRCA2 −/−, mean) is on record as 6.7. With `COc1ccccc1Cn1c(-c2ccc(OCCC(C)C(=O)O)cc2Cl)nc2c(OC3(C)CC3)ncnc21` (racemic) [Example U4, 4-(3-chloro-4-(9-(2-methoxybenzyl)-6-(1-methylcyclopropoxy)-9H-purin-8-yl)phenoxy)-2-methylbutanoic acid], the IC50 under setting [4] was 251 nM. With `CC1(Oc2ncnc3c2nc(-c2ccc(OCCN4CCNC(C)(C)C4=O)cc2Cl)n3Cc2ccccc2)CC1` [Example R16, 1-(2-(4-(9-benzyl-6-(1-methylcyclopropoxy)-9H-purin-8-yl)-3-chlorophenoxy)ethyl)-3,3-dimethylpiperazin-2-one], the IC50 under setting [5] was 63.1 nM.

As for `CC1(Oc2ncnc3c2nc(-c2ccc(CC(N)=O)cc2Cl)n3Cc2ccnc(C#N)c2)CC1` [Example T40, 2-(3-chloro-4-(9-((2-cyanopyridin-4-yl)methyl)-6-(1-methylcyclopropoxy)-9H-purin-8-yl)phenyl)acetamide], under setting [6], the IC50 is 5010 nM. For `CC1(Oc2ncnc3c2nc(-c2ccc(OCCN4CC5(CCN5)C4)cc2Cl)n3Cc2cc(Cl)ccn2)CC1` [Example T486, 8-(4-(2-(1,6-diazaspiro[3.3]heptan-6-yl)ethoxy)-2-chlorophenyl)-9-((4-chloropyridin-2-yl)methyl)-6-(1-methylcyclopropoxy)-9H-purine], under setting [3], the IC50 is 501 nM. Consider `Cc1ccc(Cn2c(-c3ccc(CC(N)=O)cc3Cl)nc3c(OC4(C)CC4)ncnc32)cc1` [Example T100, 2-(3-chloro-4-(9-(4-methylbenzyl)-6-(1-methylcyclopropoxy)-9H-purin-8-yl)phenyl)acetamide], for which, under setting [6], the IC50 was 794 nM. Consider `Cc1cccc(Cn2c(-c3ccc(OCCC(=O)O)cc3Cl)nc3c(OC4(C)CC4)ncnc32)c1` [Example T167, 3-(3-chloro-4-(9-(3-methylbenzyl)-6-(1-methylcyclopropoxy)-9H-purin-8-yl)phenoxy)propanoic acid], for which, under setting [3], the IC50 was 794 nM. Turning to `CC1(Oc2ncnc3c2nc(-c2ccc(OCC4(CC(=O)O)CC4)cc2Cl)n3Cc2ccccc2C#N)CC1` [Example U15, 2-(1-((3-chloro-4-(9-(2-cyanobenzyl)-6-(1-methylcyclopropoxy)-9H-purin-8-yl)phenoxy)methyl)cyclopropyl)acetic acid], the IC50 under setting [4] is 794 nM.

For the compound `COc1ccc(F)cc1Cn1c(-c2cccc(OCC[C@H](C)C(=O)O)c2Cl)nc2c(OC3(C)CC3)ncnc21` [Example U72, (S)-4-(2-chloro-3-(9-(5-fluoro-2-methoxybenzyl)-6-(1-methylcyclopropoxy)-9H-purin-8-yl)phenoxy)-2-methylbutanoic acid], the IC50 under setting [4] is 1.58 nM. Consider `CNC(=O)COc1ccc(-c2nc3c(OC4(C)CC4)ncnc3n2CCc2ccccc2)c(Cl)c1` [Example T195, 2-(3-chloro-4-(6-(1-methylcyclopropoxy)-9-phenethyl-9H-purin-8-yl)phenoxy)-N-methylacetamide], for which, under setting [3], the IC50 was 1260 nM.
